Test results published in a melting point compilation (Tetko et al.; mined from patent text by program, amines drawn as free bases though some values may be those of a salt).

Row | SMILES | melting point [°C]
1 | Cc1noc(NS(=O)(=O)c2ccccc2-c2ccccn2)c1C | 136 to 137
2 | CC(=O)Nc1ccccc1C(=O)NCCN1CCC(Nc2nc3ccccc3n2Cc2ccc(F)cc2)CC1 | 171
3 | O=C(CNc1ccc2[nH]c(=O)[nH]c2c1)N1CCC(Cc2ccc(F)cc2)CC1 | 85 to 87
4 | Cc1cc2c(cc1S(N)(=O)=O)S(=O)(=O)NC(c1cccnn1)=N2 | 330 to 335
5 | CCN1C(=O)C(NC(=O)C(F)(F)F)CCc2c1ccc(Nc1ncc(Cl)c(N[C@@H]3CCCC[C@H]3NS(C)(=O)=O)n1)c2OC (some centres not stated) | 160 to 162
6 | CNC(=O)C(Cc1ccc(OC)cc1)NC(=O)C(CC(C)C)C(CC(=O)O)SC(C)=O (configuration not stated) | 92 to 95
7 | CC1CC(=O)Nc2nc(OCCCCN3CCN(c4cccc(Cl)c4Cl)CC3)ccc21 (configuration not stated) | 53 to 54
8 | Cc1ccc(C(C)(O)P(O)O)cc1 (configuration not stated) | 115
9 | CCn1ncc(C(=O)c2ccc(S(C)(=O)=O)c(OCCOC)c2Cl)c1O | 159 to 160
10 | CSc1nc(C)c(CCO)c(=O)n1C | 117 to 118
11 | COc1nc(C(F)(F)C(F)(F)F)c(F)c(=O)n1-c1cc(OC(C)C)c(Cl)cc1F | 69 to 71
12 | Nc1ccc(Cl)cc1C(=O)c1c(F)cccc1F | 103 to 105
13 | CCN(CC)C(=O)NC1CC2c3cccc4[nH]c(C#Cc5ccc(C#N)cc5)c(c34)CC2N(C)C1 (configuration not stated) | 150 to 151
14 | CC(O)CCCCCCCCc1ccc(O)c(O)c1 (configuration not stated) | 43 to 46
15 | Cc1cc(Oc2cccc(C(F)(F)F)c2)nn1C(=O)Nc1ccc(F)cc1 | 70 to 72
16 | CC(C)(n1cncn1)C(O)(Cc1nc[nH]n1)c1ccc(C(F)(F)F)cc1F (configuration not stated) | 174 to 175
17 | O=C(O)c1ccccc1Sc1cc(Cl)ccc1C(=O)O | 241 to 242
18 | CC(C)C(c1ccc2ncc(=O)[nH]c2c1)n1ccnc1 (configuration not stated) | 246
19 | COC(=O)C1Cc2c([nH]c3ccccc23)CN1C(=S)SC (configuration not stated) | 132 to 134
20 | CC(C)Cc1nc2sc3c(NCCN4CCOCC4)ncnc3c2c2c1CCC(C)(C)C2 | 190
21 | COc1ccc(Cl)cc1CCCC(=O)O | 79 to 81
22 | CC(C)(C)[Si](C)(C)Oc1cccc(C2(Br)C(=O)NC(=O)NC2=O)c1 | 170 to 172
23 | CCN1CCN(Cc2ccc(-c3cc4c(NCc5cccc(Cl)c5)ncnc4[nH]3)cc2)CC1 | 241 to 243
24 | COc1ccc(-c2cc(Cl)c3c(Cl)c(O)ccc3c2)cc1 | 132 to 134
25 | O=C(O)C1CCc2cc([N+](=O)[O-])ccc2O1 (configuration not stated) | 180

Row | SMILES | melting point [°C]
26 | CCOc1cc2c(cc1OC)C(c1ccc(C(=O)N(C(C)C)C(C)C)cc1)=NC1CC[N+](C)([O-])CC21 (configuration not stated) | 195 to 198
27 | Cc1nc(-c2cccc(Nc3ccc(I)cc3N)c2)cs1 | 151 to 152
28 | CN1C(=O)CC[C@]2(C)c3ccc(SC(c4ccccc4)c4ccccc4)cc3CC[C@@H]12 | 102 to 104
29 | COc1cccc(-c2ccc(-c3ccc(C(=O)O)cc3)cc2-c2ccc3c(c2)C(C)(C)CCC3(C)C)c1 | 116 to 118
30 | Oc1ncnc2c1nc(CC1CCN(CC3COc4ccccc4O3)CC1)n2Cc1ccc(F)cc1 (configuration not stated) | 201
31 | COc1ccc2nc(-c3ccc([N+](=O)[O-])cc3)sc2c1 | 216 to 217
32 | Cc1csc2c(C=O)ncn12 | 172 to 175
33 | COc1c(CBr)c(OC)c(CBr)c(OC)c1CBr | 126
34 | Cc1ccc(S(=O)(=O)OCC2CCCc3scnc32)cc1 (configuration not stated) | 64 to 65
35 | CCOC1=C(C)C(=O)C(C)(C)CC1 | 104 to 106
36 | CCC(CC)C(=O)Nc1ccco1 | 100
37 | COc1cc2c3c(c1)c(=O)c(Cc1cccnc1)cn3-c1cc(Br)ccc1S2 | 169 to 173
38 | O=C1CCC(C(=O)Nc2ccc(-n3nc(C(F)(F)F)cc3C(F)(F)F)cc2)O1 (configuration not stated) | 172 to 173
39 | O=C1N(Cc2nnc(-c3ccccc3)o2)c2ccccc2C12COc1cc3c(cc12)OCO3 (configuration not stated) | 151 to 153
40 | Cn1ncc(NCCCN2CCC(c3noc4cc(F)ccc34)CC2)c(Cl)c1=O | 200 to 202
41 | Cc1nnc(CNC(=O)CNC(=O)CN2C(=O)c3ccccc3C2=O)n1-c1ccc(Cl)cc1C(=O)c1ccccc1Cl | 269 to 270
42 | CN1CC=C(c2c[nH]c3ccc(Oc4ccccn4)cc23)CC1 | 240 to 245
43 | CNC(=O)c1ncnc(C)c1NC(=O)c1cc(Cl)nn1-c1ncccc1Cl | 205 to 207
44 | CC1(C)OC[C@H](CCOc2c(C(C)(C)C)cc(SC(C)(C)Sc3cc(C(C)(C)C)c(O)c(C(C)(C)C)c3)cc2C(C)(C)C)O1 | 44 to 46
45 | O=S(=O)(Nc1cccc(Oc2cccc3cccnc23)c1)c1ccc(Cl)cc1 | 190 to 191
46 | O=C(O)COCc1nn(Cc2ccc(F)cc2)c2ccccc12 | 135 to 136
47 | O=C(O)Cn1cc(Cc2nc3c(F)c(F)cc(F)c3s2)c2cccc(F)c21 | 194 to 196
48 | Cc1c(C(=O)O)nc2ccc3c(c2c1-c1ccc2c(c1)OCO2)OCO3 | 219 to 222
49 | O=C(O)c1ccc(OCCNC(=O)C2Cc3ccccc3N2S(=O)(=O)c2ccc(-c3cc(C(F)(F)F)ccc3Cl)cc2)cc1Cl (configuration not stated) | 106 to 112
50 | O=C(CNc1ccc(Cl)cc1)NCCc1ccc(OCc2ccccc2)c(OCc2ccccc2)c1 | 121

Row | SMILES | melting point [°C]
51 | O=C(NC(=O)c1c(F)cccc1F)Nc1cc(Cl)c(S(=O)C(F)(F)C(F)F)cc1Cl (configuration not stated) | 216 to 220
52 | CCCCCCCCCCCCN(c1nc(Cl)nc(Cl)n1)c1nc(Cl)nc(Cl)n1 | 50 to 53
53 | Cc1ccnc2c1nc(C)n2-c1ccccc1 | 117 to 119
54 | CC1(CCN2C(=O)c3cccc([N+](=O)[O-])c3C2O)OCCO1 (configuration not stated) | 130
55 | Nc1nc(N)c(NC=O)c(Cl)n1 | > 300
56 | COc1ccc(-c2nc(CNC(=O)CC(=O)O)sc2-c2ccc(OC)cc2)cc1 | 126 to 130
57 | CC(C)(C)c1cccc2nc(C(F)(F)F)[nH]c12 | 149 to 152
58 | C#CCOc1nc(-n2ncc(C(=O)OCC)c2N)c(C(F)(F)F)cc1Cl | 118 to 119
59 | CCc1c(C)[nH]c2cc(OCCOc3ccccc3)c(Cl)cc2c1=O | 290 to 292
60 | CCOC(=O)C1=Cc2cc(C#N)ccc2NC1C(F)(F)F (configuration not stated) | 211 to 212
61 | O=C(O)c1cccc(-c2cc(-c3ccc(C(F)(F)F)cc3)on2)c1 | 276 to 277
62 | O=[N+]([O-])c1ccccc1Sc1ccc(Cl)cc1 | 91 to 93
63 | CC(C)NCC(O)COC1c2ccccc2C(=O)N1c1ccc(Cl)cc1 (configuration not stated) | 90 to 92
64 | CCCCc1ccc2nnc(C(=O)O)cc2c1 | 131 to 133
65 | CN(CCO)c1cc2c(=O)n(NS(C)(=O)=O)c(=O)[nH]c2cc1C(F)(F)F | 220 to 224
66 | CCCCCCc1cc2c(s1)-n1c(C)nnc1CN=C2c1cc(C)ccc1C | 81 to 84
67 | COc1cc(-c2ccc(C#N)o2)ccc1Br | 76 to 77
68 | Cc1cc(F)ccc1-c1nc(N[C@H]2CC[C@H](O)CC2)nc2c1ccc(=O)n2-c1c(F)cccc1F | 158 to 160
69 | COc1ccc(CN2CCc3nc(-c4ccccc4)c4c(c3C2)CO[C@@H](C)C4)cc1 | 110
70 | Cc1noc2cc3c(cc12)C1(CO3)C(=O)N(Cc2ccc(-c3cc(N)n[nH]3)cc2)c2ccccc21 (configuration not stated) | 191 to 195
71 | Cc1cc(C)cc(P(c2cc(C)cc(C)c2)c2cccc3c2-c2c(cccc2P(c2cc(C)cc(C)c2)c2cc(C)cc(C)c2)OCCCO3)c1 | 232 to 234
72 | CN(C)C=Nc1sc(C=O)c(Cl)c1C#N | 186
73 | CCCCC(=N)NC(=O)Nc1ccc(Cl)cc1 | 164 to 169
74 | O=C(O)c1cn(-c2ccc(F)c([N+](=O)[O-])c2)c2nc(Cl)c(F)cc2c1=O | > 270
75 | O=C(NCc1ccccc1)C1(CCCc2ccccc2)c2ccccc2-c2ccccc21 | 94

Row | SMILES | melting point [°C]
76 | CCc1cccc(CC)c1NC(=O)C(C)Br (configuration not stated) | 197 to 199
77 | CCc1cc(OCc2ccc(-c3ccccc3-c3nnnn3-c3ccncc3)cc2)c2ccccc2n1 | 155 to 170
78 | COC(=O)C1=C(C)NC(C)=C(C(=O)OCC2CCCO2)C1c1cccc(C(F)(F)F)c1 (configuration not stated) | 108 to 110
79 | CC(C)c1ccccc1SC1=C(O)CC(CCCCC(=O)O)(c2ccccc2)OC1=O (configuration not stated) | 145 to 146
80 | O=[N+]([O-])c1ccc(SCCc2c[nH]cn2)cc1 | 167 to 168
81 | CC(C)n1nc(C#Cc2cccc(Cl)c2)ccc1=O | 94 to 95
82 | CCCN1N=C2C(=Cc3ccccc3)CSCC2C1c1ccccc1 (configuration not stated) | 111 to 120
83 | COC(=O)c1ccc2c(c1)S(=O)(=O)N=CN2C1CC1 | 192 to 195
84 | COc1cc(C(=O)O)nc(-c2cccc([N+](=O)[O-])c2)c1 | 207 to 210
85 | COC(=O)Nc1ccccc1 | 45 to 46
86 | Cc1cccc(-c2n[nH]cc2-c2ccc(F)c(-c3ccc(S(=O)(=O)C(F)(F)F)cc3)c2)n1 | 81 to 84
87 | CCc1nn(C2CN(C(C)C)C2)c(C(N)=O)c1[N+](=O)[O-] | 153 to 156
88 | CCOC(=O)c1cccc(/C=C/C(=O)c2cc(O)ccc2[N+](=O)[O-])c1 | 157 to 159
89 | CC(=O)c1ccc(C(C)ON2C(C)(C)CCCC2(C)C)cc1 (configuration not stated) | 61.5 to 63
90 | O=C1OCCN1CCCC(c1cc(F)ccc1F)S(=O)(=O)c1ccc(Cl)cc1 (configuration not stated) | 156 to 159
91 | O=C(c1ccc2c(c1)[C@@H](O)[C@H](Br)CCO2)c1ccccc1C(F)(F)F (relative stereo) | 176 to 179
92 | CCSSCS(C)(=O)=O | 34.6 to 36.3
93 | [N-]=[N+]=NS(=O)(=O)c1ccc(N2CC(CO)OC2=O)cc1 (configuration not stated) | 108 to 110
94 | O=C(O)C1CN(C(=O)N(c2ccccc2)c2ccccc2)CCN1C(=O)N(c1ccccc1)c1ccccc1 (configuration not stated) | 244 to 246
95 | COc1ccccc1N1CCN(C(=O)[C@@H](Cc2ccncc2)NC(=O)OC(C)(C)C)CC1 | 105
96 | CC(NC(=O)Cc1cc(F)cc(F)c1)C(=O)NC1C(=O)NCc2ccccc21 (configuration not stated) | 243 to 244
97 | CC(C)(C)NC(=O)N(Cc1ccccc1)CC(O)C(Cc1ccccc1)NC(=O)C(CC(N)=O)NC(=O)c1ccc2ccccc2n1 (configuration not stated) | 110 to 112
